Target: Plk1 (Homo sapiens, UniProt P53350)
Experiment: biochemical

Sequence of Plk1 (P53350 20-338): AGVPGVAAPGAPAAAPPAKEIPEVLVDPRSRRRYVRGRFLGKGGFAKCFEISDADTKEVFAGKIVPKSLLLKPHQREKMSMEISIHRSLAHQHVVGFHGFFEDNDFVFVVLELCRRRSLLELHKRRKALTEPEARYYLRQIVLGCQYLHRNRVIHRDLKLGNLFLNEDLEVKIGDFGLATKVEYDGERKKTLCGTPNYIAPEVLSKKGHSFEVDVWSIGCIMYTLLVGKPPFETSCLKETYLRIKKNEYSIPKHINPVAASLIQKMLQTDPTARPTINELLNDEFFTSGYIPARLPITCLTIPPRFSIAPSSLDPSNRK

Structure (SMILES)	Ki
COc1cc(C(=O)N[C@@H]2CCN(C)C2)ccc1Nc1ncc2c(n1)N(C1CCCC1)CC(C)(C)C(=O)N2C [Compound I-26, 4-(9-cyclopentyl-6,7,8,9-tetrahydro-5,7,7-trimethyl-6-oxo-5H-pyrimido[4,5-b][1,4]diazepin-2-ylamino)-3-methoxy-N—((R)-1-methylpyrrolidin-3-yl)benzamide]	< 0.01 µM
CN1C(=O)C(C)(C)CN(C2CCCC2)c2nc(Nc3cccc4cn[nH]c34)ncc21 [Compound I-89, 2-(1H-indazo-7-ylamino)-9-cyclopentyl-8,9-dihydro-5,7,7-trimethyl-5H-pyrimido[4,5-b][1,4]diazepin-6(7H)-one]	0.01 to 0.1 µM
COC(=O)Nc1cccc(Nc2ncc3c(n2)N(C2CCCC2)CC(C)(C)C(=O)N3C)c1 [Compound I-155]	0.01 to 0.1 µM
CC(=O)N1CCc2cc(Nc3ncc4c(n3)N(C3CCCC3)CC(C)(C)C(=O)N4C)ccc21 [Compound I-79, 2-(1-acetylindolin-5-ylamino)-9-cyclopentyl-8,9-dihydro-5,7,7-trimethyl-5H-pyrimido[4,5-b][1,4]diazepin-6(7H)-one]	0.01 to 0.1 µM
COc1cc(C(=O)N2CCN(C(=O)OC(C)(C)C)CC2)ccc1Nc1ncc2c(n1)N(C1CCCC1)CCC(=O)N2C [Compound I-7, 4-(9-cyclopentyl-6,7,8,9-tetrahydro-5-methyl-6-oxo-5H-pyrimido[4,5-b][1,4]diazepin-2-ylamino)-3-methoxyphenyl-(4-tert-butoxycarbonypiperazin-1-yl)methanone]	0.01 to 0.1 µM
CN1C(=O)C(C)(C)CN(C2CCCC2)c2nc(Nc3cccc4c3CNC4=O)ncc21 [Compound I-124, 2-(1-oxoisoindolin-4-ylamino)-9-cyclopentyl-8,9-dihydro-5,7,7-trimethyl-5H-pyrimido[4,5-b][1,4]diazepin-6(7H)-one]	0.01 to 0.1 µM
COc1cc(C(=O)NC2CCC2)ccc1Nc1ncc2c(n1)N(C1CCCC1)C[C@@H](C)C(=O)N2C [Compound I-186, (R)—N-cyclobutyl-4-(9-cyclopentyl-5,7-dimethyl-6-oxo-6,7,8,9-tetrahydro-5H-pyrimido[4,5-b][1,4]diazepin-2-ylamino)-3-methoxybenzamide]	< 0.01 µM
COc1cc(C(=O)NC(C)(C)CO)ccc1Nc1ncc2c(n1)N(C1CCCC1)CC1(CC1)C(=O)N2C [Compound I-271, 4-(9′-cyclopentyl-5′-methyl-6′-oxo-5′,6′,8′,9′-tetrahydrospiro[cyclopropane-1,7′-pyrimido[4,5-b][1,4]diazepine]-2′-ylamino)-N-(1-hydroxy-2-methylpropan-2-yl)-3-methoxybenzamide]	< 0.01 µM
COc1cc(C(=O)NC2CCCC2)ccc1Nc1ncc2c(n1)N(C1CCCC1)C[C@H](C)C(=O)N2C [Compound I-173, 4-((S)-9-cyclopentyl-6,7,8,9-tetrahydro-5,7-dimethyl-6-oxo-5H-pyrimido[4,5-b][1,4]diazepin-2-ylamino)-N-cyclopentyl-3-methoxybenzamide]	< 0.01 µM
CN1C(=O)C(C)(C)CN(C2CCCC2)c2nc(Nc3ccc(CN4CCOCC4)cc3)ncc21 [Compound I-86]	0.01 to 0.1 µM
CNC(=O)c1ccc(Nc2ncc3c(n2)N(C2CCCC2)[C@@H]2CCC[C@@H]2C(=O)N3C)c(OC)c1 [Compound I-15, 4-((3aR,10aS)-4-cyclopentyl-9-methyl-10-oxo-1,2,3,3a,4,9,10,10a-octahydro-4,5,7,9-tetraaza-benzo[f]azulen-6-ylamino)-3-methoxy-N-methylbenzamide]	0.01 to 0.1 µM
COc1cc(C(=O)NCCc2cncn2C)ccc1Nc1ncc2c(n1)N(C1CCCC1)CC(C)(C)C(=O)N2C [Compound I-27, 4-(9-cyclopentyl-6,7,8,9-tetrahydro-5,7,7-trimethyl-6-oxo-5H-pyrimido[4,5-b][1,4]diazepin-2-ylamino)-3-methoxy-N-(2-(1-methyl-1H-imidazo-5-yl)ethyl)benzamide]	< 0.01 µM
CCCNC(=O)c1ccc(Nc2ncc3c(n2)N(C2CCCC2)CC(C)(C)C(=O)N3C)c(OC)c1 [Compound I-218, 4-(9-cyclopentyl-5,7,7-trimethyl-6-oxo-6,7,8,9-tetrahydro-5H-pyrimido[4,5-b][1,4]diazepin-2-ylamino)-3-methoxy-N-propylbenzamide]	< 0.01 µM
COc1cc(C(=O)NC[C@@H]2CCCC[C@@H]2O)ccc1Nc1ncc2c(n1)N(C1CCCC1)CC(C)(C)C(=O)N2C [Compound I-216, 4-(9-cyclopentyl-5,7,7-trimethyl-6-oxo-6,7,8,9-tetrahydro-5H-pyrimido[4,5-b][1,4]diazepin-2-ylamino)-N-(((1S,2S)-2-hydroxycyclohexyl)methyl)-3-methoxybenzamide]	< 0.01 µM
COc1cc(C(=O)N[C@@H]2CC[C@@H](CO)C2)ccc1Nc1ncc2c(n1)N(C1CCCC1)CC(C)(C)C(=O)N2C [Compound I-260, 4-(9-cyclopentyl-5,7,7-trimethyl-6-oxo-6,7,8,9-tetrahydro-5H-pyrimido[4,5-b][1,4]diazepin-2-ylamino)-N-((1R,3R)-3-(hydroxymethyl)cyclopentyl)-3-methoxybenzamide]	< 0.01 µM
COc1cc(C(=O)N2CC[C@H](F)C2)ccc1Nc1ncc2c(n1)N(C1CCCC1)CC(C)(C)C(=O)N2C [Compound I-32, 9-Cyclopentyl-2-[4-((S)-3-fluoro-pyrrolidine-1-carbonyl)-2-methoxyphenylamino]-5,7,7-trimethyl-5,7,8,9-tetrahydropyrimido[4,5-b][1,4]diazepin-6-one]	< 0.01 µM
CNC(=O)c1ccc(Nc2ncc3c(n2)N(C2CCCC2)CC(C)(C)c2nncn2-3)c(OC)c1 [Compound I-36, 4-(6-Cyclopentyl-4,4-dimethyl-5,6-dihydro-4H-2,3,6,7,9,10b-hexaazabenzo[e]azulen-8-ylamino)-3-methoxy-N-methylbenzamide]	< 0.01 µM
COc1cc(C(=O)N[C@H]2CCOC2)ccc1Nc1ncc2c(n1)N(C1CCCC1)CC(C)(C)C(=O)N2C [Compound I-172, 4-(9-cyclopentyl-6,7,8,9-tetrahydro-5,7,7-trimethyl-6-oxo-5H-pyrimido[4,5-b][1,4]diazepin-2-ylamino)-N—((S)-tetrahydrofuran-3-yl)-3-methoxybenzamide]	< 0.01 µM
COc1cc(C(=O)Nc2nccs2)ccc1Nc1ncc2c(n1)N(C1CCCC1)CC(C)(C)C(=O)N2C [Compound I-223, 4-(9-cyclopentyl-5,7,7-trimethyl-6-oxo-6,7,8,9-tetrahydro-5H-pyrimido[4,5-b][1,4]diazepin-2-ylamino)-3-methoxy-N-(thiazol-2-yl)benzamide]	< 0.01 µM
COc1cc(C(=O)NC2CC2)ccc1Nc1ncc2c(n1)N(C1CCCC1)CC(C)(C)C(=O)N2C [Compound I-93, 4-(9-cyclopentyl-6,7,8,9-tetrahydro-5,7,7-trimethyl-6-oxo-5H-pyrimido[4,5-b][1,4]diazepin-2-ylamino)-N-cyclopropyl-3-methoxybenzamide]	< 0.01 µM
COc1cc(C(=O)NCc2ccco2)ccc1Nc1ncc2c(n1)N(C1CCCC1)CC1(CC1)C(=O)N2C [Compound I-248, 4-(9′-cyclopentyl-5′-methyl-6′-oxo-5′,6′,8′,9′-tetrahydrospiro[cyclopropane-1,7′-pyrimido[4,5-b][1,4]diazepine]-2′-ylamino)-N-(furan-2-ylmethyl)-3-methoxybenzamide]	< 0.01 µM
CN1C(=O)C(C)(C)CN(C2CCCC2)c2nc(Nc3cccc(-c4cc[nH]n4)c3)ncc21 [Compound I-137, 2-(3-(1H-pyrazol-3-yl)phenylamino)-9-cyclopentyl-8,9-dihydro-5,7,7-trimethyl-5H-pyrimido[4,5-b][1,4]diazepin-6(7H)-one]	0.01 to 0.1 µM
CN1C(=O)C(C)(C)CN(C2CCCC2)c2nc(Nc3ccc4ncsc4c3)ncc21 [Compound I-44, 2-(benzo[d]thiazol-6-ylamino)-9-cyclopentyl-8,9-dihydro-5,7,7-trimethyl-5H-pyrimido[4,5-b][1,4]diazepin-6(7H)-one]	0.01 to 0.1 µM
CNC(=O)c1ccc(Nc2ncc3c(n2)N(C2CCCC2)CC(C)(C)C(=O)N3C)cc1 [Compound I-80, 4-(9-cyclopentyl-6,7,8,9-tetrahydro-5,7,7-trimethyl-6-oxo-5H-pyrimido[4,5-b][1,4]diazepin-2-ylamino)-N-methylbenzamide]	< 0.01 µM
COc1cc(C(=O)Nc2ccnc(Cl)c2)ccc1Nc1ncc2c(n1)N(C1CCCC1)CC(C)(C)C(=O)N2C [Compound I-227, N-(2-chloropyridin-4-yl)4-(9-cyclopentyl-5,7,7-trimethyl-6-oxo-6,7,8,9-tetrahydro-5H-pyrimido[4,5-b][1,4]diazepin-2-ylamino)-3-methoxybenzamide]	< 0.01 µM
CN1C(=O)C(C)(C)CN(C2CCCC2)c2nc(Nc3ccc4[nH]c(=O)[nH]c4c3)ncc21 [Compound I-108, 2-(2,3-dihydro-2-oxo-1H-benzo[d]imidazol-6-ylamino)-9-cyclopentyl-8,9-dihydro-5,7,7-trimethyl-5H-pyrimido[4,5-b][1,4]diazepin-6(7H)-one]	< 0.01 µM
COc1cc(C(=O)NCCC(F)(F)F)ccc1Nc1ncc2c(n1)N(C1CCCC1)CC(C)(C)C(=O)N2C [Compound I-132, 4-(9-cyclopentyl-6,7,8,9-tetrahydro-5,7,7-trimethyl-6-oxo-5H-pyrimido[4,5-b][1,4]diazepin-2-ylamino)-N-(3,3,3-trifluoropropyl)-3-methoxybenzamide]	< 0.01 µM
CN1CCC(C(=O)Nc2cccc(Nc3ncc4c(n3)N(C3CCCC3)CC(C)(C)C(=O)N4C)c2)CC1 [Compound I-157, N-(3-(9-cyclopentyl-6,7,8,9-tetrahydro-5,7,7-trimethyl-6-oxo-5H-pyrimido[4,5-b][1,4]diazepin-2-ylamino)phenyl)-1-methylpiperidine-4-carboxamide]	< 0.01 µM
COc1cc(C(=O)NC2CN(C(C)C)C2)ccc1Nc1ncc2c(n1)N(C1CCCC1)CC(C)(C)C(=O)N2C [Compound I-52, 4-(9-cyclopentyl-6,7,8,9-tetrahydro-5,7,7-trimethyl-6-oxo-5H-pyrimido[4,5-b][1,4]diazepin-2-ylamino)-N-(1-isopropylazetidin-3-yl)-3-methoxybenzamide]	< 0.01 µM
COc1cc(C(=O)NCC(C)(C)CO)ccc1Nc1ncc2c(n1)N(C1CCCC1)CC(C)(C)C(=O)N2C [Compound I-211, 4-(9-cyclopentyl-5,7,7-trimethyl-6-oxo-6,7,8,9-tetrahydro-5H-pyrimido[4,5-b][1,4]diazepin-2-ylamino)-N-(3-hydroxy-2,2-dimethylpropyl)-3-methoxybenzamide]	< 0.01 µM

Source: US8394952B2 (Vertex Pharmaceuticals Incorporated, priority 2006, dated 2013)
